# Test results from ChEMBL document CHEMBL1944547, “Ethionamide boosters. 2. Combining bioisosteric replacement and structure-based drug design to solve pharmacokinetic issues in a series of potent 1,2,4-oxadiazole EthR inhibitors” (J Med Chem, 2012).
# Tests used:
# [1] = in vitro; conditions: CD-1, mouse, liver microsomes
# [2] = Solubility of the compound in PBS buffer at pH 7.4 after 24 hrs by LC-MS analysis; type: physicochemical
half-life at 1 µM [1] [min],solubility at 24 h [2] [µg/mL],Compound
5,,O=C(CCC(F)(F)F)N1CCC(c2nc(-c3cccs3)no2)CC1
34,300,O=C(CCC(F)(F)F)N1CCC(c2nc(-c3nccs3)no2)CC1
6,6,COc1ccc2nc(-c3noc(C4CCN(C(=O)CCC(F)(F)F)CC4)n3)sc2c1
,40,O=C(CCC(F)(F)F)N1CCC(c2nc(-c3ccccc3)no2)CC1
81,,O=C(CCCC(F)(F)F)N1CCC(c2nc(-c3nccs3)no2)CC1
